Results on 4 molecules are retold here after paper PMC10302582, “Unveiling the Potential of BenzylethyleneAryl–Urea Scaffolds for the Design of New Onco Immunomodulating Agents” (Pharmaceuticals, 2023).

Assay [1] relates to CD11b. Briefly: CD11b detection on membrane of co-cultured THP-1. The format is cell-based, human. The conditions noted are these: for % CD11b expression in membrane of THP-1: 1:5 HT-29/THP-1, 24 h, relative to non-treated co-cultured THP-1; for reduction of CD11b expression: THP-1 co-cultured with HT-29. An excerpt:
Reducing the expression of CD11b has become a promising target for immune modulation in anticancer therapies. For that reason, we decided to study the effect of our compounds on CD11b in THP-1 cells co-cultured with HT-29. We also determined the relative amount of CD80, a common surface marker for monocytes.
The results are related to non-treated THP-1 cells when they were co-cultured with HT-29.
The action of the compounds on CDs in co-cultured THP-1 immune cells with cancer cell line HT-29 was tested by treating them with the compounds for 24 h/48 h (see Section 4.2.5). Surface CD11b and CD80 was determined by collecting THP-1 with trypsin, fixing with formaldehyde and staining with FITC Mouse monoclonal Anti-Human CD80 (Sigma-Aldrich SAB4700142) and Alexa Fluor® 647 Rabbit monoclonal Anti-CD11b (Merck #MABF366, Rahway, NJ, USA).

Assay [2] concerns the target T1, PD-L1 (Homo sapiens, UniProt Q9NZQ7).
T1 construct: assess the effect of our new ureas on these two proteins only on the HT-29 cancer cell line through the use of flow cytometry; endogenous in cells; host or cells: HT-29
The experiment in a line: PD-L1 relative quantification by flow cytometry in HT-29 cells. The assay is classed as cell-based. The settings on record: for inhibition rate of PD-L1: HT-29, total PD-L1, dose not stated; for total PD-L1 (%) expression: HT-29 cells, 24 h, relative to DMSO control = 100. As to the method:
The cells were incubated for a period of time of one day with doses of each of the selected compounds at two different doses: 20 and 100 µM concentrations.
The effects of the compounds on the target in the cancer cell lines compounds were tested using 20 and 100 µM doses. For that, 10^5 cells per well were seeded on a 12-well plate for 24 h with the corresponding dose of the tested compound in a total volume of 500 μL of cell media. To determine the total PD-L1 and VEGFR-2, the cells were collected and fixed with 4% in a PBS of formaldehyde. After this, a treatment with 0.5% in PBS Triton^TM X-100 permeabilized the membranes. Finally, the cells were treated with FITC Mouse monoclonal Anti-Human VEGFR-2 (ab184903) and Alexa Fluor® 647 Rabbit monoclonal Anti-PD-L1 (ab215251).
To determine surface PD-L1 and VEGFR-2, the assay used was similar to the above but avoided the permeabilization step (Triton^TM X-100).
In general terms: A flow cytometer gives signals particle by particle.

For assay [3], the system named is HT-29 (colon adenocarcinoma). The experiment in a line: MTT cell proliferation assay, HT-29. The format is cell-based. The conditions noted are these: Homo sapiens, read-out: IC50 HT-29. On the procedure: (§1) After the supernatant was discarded, we solved the formazan crystal in 100 µL of DMSO. The absorbance was then registered at 550 nm using a plate lector. For all concentrations of any compound, cell viability was expressed as the percentage of the ratio between the mean absorbance of the treated cells and the mean absorbance of the untreated cells. Three to five experiments were performed to establish the IC50 values (i.e., concentration half inhibiting cell proliferation, we used GraphPad Prism 7 software).
(In general: Tetrazolium dyes change colour on reduction, which living cells bring about.)

In assay [4] the test system is human microvessel endothelial cells (HMEC-1). The experiment in a line: MTT cell proliferation assay, HMEC-1. The assay is classed as cell-based. The settings on record: Homo sapiens. On the procedure: (§2) The action on cell proliferation caused by our developed compounds was studied using an MTT assay using the human tumor cell lines of HT-29 (colon adenocarcinoma) and A-549 (pulmonary adenocarcinoma), as well as toward the non-tumor cell line HEK-293 (human embryonic kidney cells), Jurkat T-cells and human microvessel endothelial cells (HMEC-1).
(§3) In general, 5 × 10^3 (HT-29, A549, HMEC-1, Jurkat and HEK-293) cells per well were seeded in 96-well plates with 1:1 dilutions of the compounds in a volume of 100 μL of the cell media. The 3-(4,5-dimethylthiazol-2-yl)-2,5-diphenyltetrazolium bromide (MTT; Sigma Chemical Co.) dye exclusion assay was performed, and after 48 h (37 °C, 5% CO2 in a humid atmosphere), 10 μL of MTT (5 mg/mL in phosphate-buffered saline, PBS) was added to each well and incubated for 3 h at 37 °C. After the supernatant was discarded, we solved the formazan crystal in 100 µL of DMSO. The absorbance was then registered at 550 nm using a plate lector. For all concentrations of any compound, cell viability was expressed as the percentage of the ratio between the mean absorbance of the treated cells and the mean absorbance of the untreated cells. Three to five experiments were performed to establish the IC50 values (i.e., concentration half inhibiting cell proliferation, we used GraphPad Prism 7 software).

The test system of assay [5] is A-549 (pulmonary adenocarcinoma). Briefly: MTT cell proliferation assay, A-549. The conditions noted are these: Homo sapiens, read-out: IC50 A-549. The assay is classed as cell-based. As to the method:
as §1

Assay [6] relates to THP-1 cells co-cultured with HT-29. The experiment in a line: Immune cell proliferation in co-cultures of HT-29/THP-1. The conditions noted are these: 100 μM. The format is cell-based, human. As to the method:
We also determined the effect of the selected compounds on the human monocyte cells THP-1 in the described co-cultures (see Table 6).
(§4) To determine the action of the compounds on cancer cell proliferation in co-culture with immune cells, 10^5 or 2 × 10^5 of the HT-29 cells line were seeded in each well of 12-well plates and left at 37 °C for 24 h. Then, the cancer cells were treated with IFN-γ (10 ng/mL; human, Invitrogen®, Waltham, MA, USA) containing 5 × 10^5 or 10^5, respectively, of THP-1 cells per well and the corresponding compound at 100 μM or DMSO for the positive control. After 24 h/48 h of incubation, the supernatants were collected to establish the alive THP-1 cells using FSC and SCC flow cytometry. In addition, cancer cells were collected with trypsin, fixed with 4% in PBS paraformaldehyde and counted using flow cytometry.

Assay [7] deals with Jurkat T-cells. The experiment in a line: MTT cell proliferation assay, Jurkat T-cells. The assay is classed as cell-based. The settings on record: Homo sapiens, Jurkat, 48 h treatment. As to the method: as §2, §3
For assay [8], the system named is HT-29 cells co-cultured with THP-1. The experiment in a line: Cancer cell proliferation in co-cultures of HT-29 and THP-1. The assay is classed as cell-based, human. The settings on record: 100 μM. On the procedure:
To establish the potential of the selected compounds as immunomodulator agents, we studied the effect of the selected compounds on HT-29 cell proliferation when co-cultured with human monocytic leukemia cell line THP-1. For the study, we used different proportions of cancer and immune cells. Standard protocol proportions were 1:5 cancer/immune cells. We include a test using a 2:1 proportion of HT-29 cells to THP-1 cells. The tests were performed for two periods of time: 24 and 48 h, using 100 μM doses of the selected compounds and BMS-8 as the reference compound.
as §4

Like-named read-outs stand apart in the source and are kept apart here.

T1 sequence (Q9NZQ7 19-290): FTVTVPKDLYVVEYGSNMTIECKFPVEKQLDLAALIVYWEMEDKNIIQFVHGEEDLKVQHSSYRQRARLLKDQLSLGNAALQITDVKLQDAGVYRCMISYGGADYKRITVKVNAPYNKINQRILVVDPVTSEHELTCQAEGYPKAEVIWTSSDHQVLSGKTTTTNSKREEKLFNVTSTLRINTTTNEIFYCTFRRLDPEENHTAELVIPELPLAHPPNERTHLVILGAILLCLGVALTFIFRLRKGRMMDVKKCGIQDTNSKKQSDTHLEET

By IC50 is commonly meant the point on the concentration scale where inhibition reaches its midpoint. `COc1ccc(CCCc2cccc(NC(=O)Oc3ccccc3)c2)cc1` [C.1]: the “% CD11b expression in membrane of THP-1” value in assay [1] turned out to be 79 ± 9%. Further, the “inhibition rate of PD-L1” value in assay [2] was determined as 30%. For the same molecule, the “total PD-L1 (%) expression” value in assay [2] (20 μM) amounted to 70 ± 16%; in assay [2] (100 μM), 91 ± 7%. Moreover, the 50% inhibitory concentration (IC50) in assay [3] (HT-29, 48 h) was > 100 µM; in assay [4] (HMEC-1, 48 h treatment) it was > 100 µM; in assay [5] (A549, 48 h), > 100 µM; in assay [7], > 100 µM. Also, the “THP-1 cell proliferation in co-culture” value in assay [6] (1:5 HT-29/THP-1, 24 h) was determined as 104 ± 8; in assay [6] (1:5 HT-29/THP-1, 48 h), 97 ± 8; in assay [6] (2:1 HT-29/THP-1, 24 h), 124 ± 6; in assay [6] (2:1 HT-29/THP-1, 48 h), 113 ± 7. Further, the “HT-29 cancer cell proliferation in co-culture” value (shortened to “HT-29 cancer cell proliferation”) in assay [8] (1:5 HT-29/THP-1, 24 h) came to 48 ± 8; in assay [8] (1:5 HT-29/THP-1, 48 h) it was 52 ± 3; in assay [8] (2:1 HT-29/THP-1, 24 h) it was 70 ± 8; in assay [8] (2:1 HT-29/THP-1, 48 h), 66 ± 8.
For the molecule `COc1ccc(CCCc2cccc(NC(=O)Nc3ccccc3OC)c2)cc1` [C.14], in assay [1], the “% CD11b expression in membrane of THP-1” value is given as 66 ± 3%. Moreover, the “reduction of CD11b expression” value in assay [1] is “about 35%”. Besides, the “inhibition rate of PD-L1” value in assay [2] came to 50%. The entries for the “total PD-L1 (%) expression” value in assay [2] (20 μM) and in assay [2] (100 μM) were 45 ± 11% and 145 ± 8%, respectively. For the same molecule, the 50% inhibitory concentration (IC50) in assay [3] (HT-29, MTT, 48 h treatment) is > 100 µM; in assay [4] (HMEC-1, 48 h, 48 h treatment), > 100 µM; in assay [5] (A549, MTT, 48 h treatment) it was > 100 µM; in assay [7] (48 h), > 100 µM. Also, the “THP-1 cell proliferation in co-culture” value is given as 99 ± 10 in assay [6] (1:5 HT-29/THP-1, 24 h); 91 ± 6 in assay [6] (1:5 HT-29/THP-1, 48 h); 110 ± 7 in assay [6] (2:1 HT-29/THP-1, 24 h); 86 ± 3 in assay [6] (2:1 HT-29/THP-1, 48 h). For the same molecule, the “HT-29 cancer cell proliferation” value is 64 ± 14 in assay [8] (1:5 HT-29/THP-1, 24 h); 68 ± 8 in assay [8] (1:5 HT-29/THP-1, 48 h); 82 ± 7 in assay [8] (2:1 HT-29/THP-1, 24 h); 58 ± 5 in assay [8] (2:1 HT-29/THP-1, 48 h).
For the molecule `COc1ccc(CCCc2cccc(NC(=O)Nc3ccc(OC)cc3)c2)cc1` [C.12], the “% CD11b expression in membrane of THP-1” value in assay [1] came to 73 ± 4%. The “inhibition rate of PD-L1” value in assay [2] is given as “around 75%”. The entries for the “total PD-L1 (%) expression” value in assay [2] (20 μM) and in assay [2] (100 μM) were 25 ± 5% and 96 ± 1%, respectively. Moreover, the IC50 was > 100 µM in assay [3] (HT-29, MTT, 48 h treatment); > 100 µM in assay [4] (HMEC-1, 48 h, 48 h treatment); 1.2 ± 0.2 µM in assay [5] (A549, MTT, 48 h treatment); > 100 µM in assay [7] (48 h). Also, the “THP-1 cell proliferation in co-culture” value came to 95 ± 18 in assay [6] (1:5 HT-29/THP-1, 24 h); 90 ± 6 in assay [6] (1:5 HT-29/THP-1, 48 h); 94 ± 5 in assay [6] (2:1 HT-29/THP-1, 24 h); 90 ± 2 in assay [6] (2:1 HT-29/THP-1, 48 h). In addition, the “HT-29 cancer cell proliferation” value stood at 84 ± 2 in assay [8] (1:5 HT-29/THP-1, 24 h); 67 ± 11 in assay [8] (1:5 HT-29/THP-1, 48 h); 93 ± 8 in assay [8] (2:1 HT-29/THP-1, 24 h); 89 ± 10 in assay [8] (2:1 HT-29/THP-1, 48 h).
On to `COc1ccc(CCCc2cccc(NC(=O)Nc3ccc(F)cc3)c2)cc1` [C.3], for which the “% CD11b expression in membrane of THP-1” value in assay [1] was 67 ± 22%. Besides, the “reduction of CD11b expression” value in assay [1] is “about 35%”. Besides, the “inhibition rate of PD-L1” value in assay [2] is given as 30%. Moreover, the “total PD-L1 (%) expression” value turned out to be 70 ± 4% in assay [2] (20 μM) and 222 ± 69% in assay [2] (100 μM). For the same molecule, the IC50 was > 100 µM in assay [3] (HT-29, MTT, 48 h treatment); > 100 µM in assay [4] (HMEC-1, 48 h, 48 h treatment); > 100 µM in assay [5] (A549, MTT, 48 h treatment); > 100 µM in assay [7] (48 h). For the same molecule, the “THP-1 cell proliferation in co-culture” value came out at 87 ± 8 in assay [6] (1:5 HT-29/THP-1, 24 h); 78 ± 5 in assay [6] (1:5 HT-29/THP-1, 48 h); 113 ± 26 in assay [6] (2:1 HT-29/THP-1, 24 h); 91 ± 18 in assay [6] (2:1 HT-29/THP-1, 48 h). In addition, the “HT-29 cancer cell proliferation” value in assay [8] (1:5 HT-29/THP-1, 24 h) is listed as 78 ± 8; in assay [8] (1:5 HT-29/THP-1, 48 h), 64 ± 3; in assay [8] (2:1 HT-29/THP-1, 24 h) it was 67 ± 9; in assay [8] (2:1 HT-29/THP-1, 48 h) it was 57 ± 5.
